Experimental data: patent publication US8580268B2, “CpG oligonucleotide analogs containing hydrophobic T analogs with enhanced immunostimulatory activity” (Coley Pharmaceutical GmbH, priority 2006, dated 2013)
“Also recorded” adds a separate entry of the source. Strand notation (5' to 3'): a small letter for the sugar, then the base; units joined by * are phosphorothioate-linked, units joined directly phosphodiester-linked; [ ] holds rarer units or linkages, { } end groups; capitals alone tell only the bases. [5IU] = 5-iodo-2'-deoxyuridine (JU); [5EtU] = 5-ethyl-2'-deoxyuridine (EU); d = 2'-deoxy (DNA)

Legend:
[1] = target: T1, human TLR9 (Homo sapiens, UniProt Q9NR96); test: TLR9 luciferase assay (NF-κB reporter) in hTLR9-LUC-293 cells; format: cell-based; conditions: 16 h, stated in words relative to the comparator ODN
T1 construct: expressed in transfected cells
T1 sequence (Q9NR96 26-1032): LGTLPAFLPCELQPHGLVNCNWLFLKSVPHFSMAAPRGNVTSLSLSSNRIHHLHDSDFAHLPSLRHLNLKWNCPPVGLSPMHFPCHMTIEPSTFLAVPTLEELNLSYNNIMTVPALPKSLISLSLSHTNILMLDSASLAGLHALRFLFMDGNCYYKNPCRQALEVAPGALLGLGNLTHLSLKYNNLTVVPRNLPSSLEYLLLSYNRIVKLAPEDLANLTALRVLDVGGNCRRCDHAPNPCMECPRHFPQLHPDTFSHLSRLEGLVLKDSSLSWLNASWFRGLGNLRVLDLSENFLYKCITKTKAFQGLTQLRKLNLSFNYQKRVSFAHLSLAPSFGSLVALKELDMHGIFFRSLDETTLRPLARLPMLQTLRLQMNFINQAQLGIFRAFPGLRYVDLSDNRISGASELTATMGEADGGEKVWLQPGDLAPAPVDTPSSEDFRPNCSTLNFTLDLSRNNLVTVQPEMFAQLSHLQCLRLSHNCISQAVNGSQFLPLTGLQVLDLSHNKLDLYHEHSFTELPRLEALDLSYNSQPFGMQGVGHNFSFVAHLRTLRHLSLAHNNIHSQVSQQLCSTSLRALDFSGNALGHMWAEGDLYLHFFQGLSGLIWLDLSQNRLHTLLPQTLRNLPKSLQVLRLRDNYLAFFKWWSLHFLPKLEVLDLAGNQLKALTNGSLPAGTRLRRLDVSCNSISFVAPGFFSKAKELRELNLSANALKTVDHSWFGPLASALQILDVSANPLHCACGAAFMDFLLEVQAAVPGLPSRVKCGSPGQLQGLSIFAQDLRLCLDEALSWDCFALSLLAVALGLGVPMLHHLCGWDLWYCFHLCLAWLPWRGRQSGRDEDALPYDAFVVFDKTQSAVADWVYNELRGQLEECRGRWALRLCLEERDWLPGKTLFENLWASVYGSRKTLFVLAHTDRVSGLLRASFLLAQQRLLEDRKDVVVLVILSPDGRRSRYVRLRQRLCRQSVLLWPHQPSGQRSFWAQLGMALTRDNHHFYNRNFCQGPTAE
Procedure: HEK293 cells were transfected by electroporation with vectors expressing the respective human TLR and a 6xNF-κB-luciferase reporter plasmid. Stable transfectants (3×10^4 cells/well) were incubated indicated amounts of ODN for 16 h at 37° C. in a humidified incubator. Each data point was done in triplicate. Cells were lysed and assayed for luciferase gene activity (using the BriteLite kit from Perkin-Elmer, Zaventem, Belgium). Stimulation indices were calculated in reference to reporter gene activity of medium without addition of ODN.

[2] = system: SaI/N tumor cells; test: Mouse SA1N tumor model; format: in vivo; conditions: A/J mice
Procedure: SA1N tumor model: Female A/J mice (10 per group) were injected SC with 5×10^5 SaI/N tumor cells on day 0. Mice were treated with 100 μg ODN or PBS alone given SC once weekly starting on day 8 post tumor induction. Animals were monitored for survival and tumor volume. Tumor size (the length and the width) was measured using a digital vernier caliper. Tumor volume was calculated by using the formula: Tumor volume=(0.4) (ab2), where a=large diameter and b=smaller diameter.
Next the modified P-class ODN were evaluated for their ability to reduce tumor volume mouse SA1N tumor model. Female A/J mice (10 per group) were injected SC with 5×10^5 SaI/N tumor cells on day 0. Mice were treated with 35 μg (FIG. 31a) or 100 μg (FIG. 31b) P-class ODN with a lipophilic substituted nucleotide analog (SEQ ID NO:60, 64, and 67), an unmodified C-class ODN, an unmodified B-class ODN (SEQ ID NO:55), or PBS alone. ODN were given SC once weekly starting on day 8 post tumor induction. Animals were monitored for survival and tumor volume.

[3] = system: human PBMC; test: IL-6 induction in human PBMC (luminex); format: cell-based; conditions: human PBMC from three donors, 24 h
Procedure: (§1) Peripheral blood buffy coat preparations from healthy human donors were obtained from the Blood Bank of the University of Düsseldorf (Germany) and PBMC were purified by centrifugation over Ficoll-Hypaque (Sigma). Cells were cultured in a humidified incubator at 37° C. in RPMI 1640 medium supplemented with 5% (v/v) heat inactivated human AB serum (BioWhittaker) or 10% (v/v) heat inactivated FCS, 2 mM L-glutamine, 100 U/ml penicillin and 100 μg/ml streptomycin (all from Sigma).
(§2) PBMC were resuspended at a concentration of 5×10^6 cells/ml and added to 96 well round-bottomed plates […]. PBMC were incubated with ODN and culture supernatants (SN) were collected after the indicated time points. If not used immediately, SN were stored at −20° C. until required.
(§3) Amounts of cytokines in the SN were assessed using an in-house ELISA for IFN-α developed using commercially available antibody (PBL, New Brunswick, N.J., USA) or on the Luminex multiplex system (Luminex Corporation, 12212 Technology Boulevard, Austin, Tex. 78727-6115).
Next the modified P-class ODN were tested for the ability to induce IL-6 in human PBMC. PBMC from three donors were incubated with ODN at concentrations as indicated for 24 h, followed by luminex 25-plex analysis of the supernatants for IL-6. The activity of modified P-class ODN (SEQ ID NO:58, 60-62, FIG. 28a) (SEQ ID NO:64 and 67, FIG. 28b) was compared to that of an unmodified B-class ODN (SEQ ID NO:55), and unmodified C-class ODN (SEQ ID NO:54), a negative control ODN (SEQ ID NO:53), and an unmodified P-class ODN (SEQ ID NO:56).

[4] = system: BALB/c mice; test: In vivo murine IFN-alpha induction after SC injection (ELISA); set-up: species or system mouse; conditions: bled at 3 hr post injection
Procedure: Female BALB/c mice (6-8 weeks of age) were purchased from Charles River Canada (Quebec, Canada) and housed in micro-isolators in the Animal Care Facility at Coley Pharmaceutical Group Canada. All studies were conducted in accordance with the Animal Care Committee of Coley Canada under the guidance of the Canadian Council on Animal Care. All animals were naïve to CpG ODNs.
In order to determine the effect of the modified P-class ODN in vivo, BALB/c mice (5 per group) were injected SC with differing doses of ODN. Animals were bled at 3 hr post injection and plasma tested for IFN-alpha by ELISA. The activity of modified P-class ODN (SEQ ID NO:58, 60-62, 64, and 67) was compared to that of a B-class negative control (SEQ ID NO:55) and a negative control (SEQ ID NO:26).

[5] = system: human PBMC; test: IFN-alpha production in human PBMC (ELISA); format: cell-based
Procedure: as §1, §2, §3

[6] = 35 μg ODN SC once weekly from day 8
[7] = 100 μg ODN SC once weekly from day 8

Substance | TLR9 stimulation (NF-κB luciferase activity, relative stimulation index) [1] | reduction in tumor volume [2, 6] | reduction in tumor volume [2, 7] | IL-6 induction [3] | plasma IFN-alpha induction [4] | IFN-alpha induction ([5]; human PBMC incubated 48 hours, ELISA, P-class ODN) | IFN-alpha production ([5]; human PBMC, 24 h, supernatants by ELISA, B-class ODN)
EU*C-G*A*C*G*T*C*G*A*T*C*G*G*C*G*C*G*C*G*C*C*G (DNA d[5EtU]*dCdG*dA*dC*dG*dT*dC*dG*dA*dT*dC*dG*dG*dC*dG*dC*dG*dC*dG*dC*dC*dG) [SEQ ID NO:64, EU-modified P-class] | higher degree of TLR9 stimulation than the unmodified P class ODN | greatest reduction in tumor volume | effective in reducing tumor volume |  |  |  | 
JU*C*G*A*C*G*T*C*G*A*T*C*G*G*C*G*C*G*C*G*C*C*G*T (DNA d[5IU]*dC*dG*dA*dC*dG*dT*dC*dG*dA*dT*dC*dG*dG*dC*dG*dC*dG*dC*dG*dC*dC*dG*dT) [SEQ ID NO:61, JU-modified P-class] |  |  |  | slightly higher activation of IL-6 | slightly higher IFN-alpha induction |  | 
JU*C*G*T*C*G*A*C*G*A*T*C*G*G*C*G*G*C*C*G*C*C*G*T (DNA d[5IU]*dC*dG*dT*dC*dG*dA*dC*dG*dA*dT*dC*dG*dG*dC*dG*dG*dC*dC*dG*dC*dC*dG*dT) [SEQ ID NO:67, JU-modified fully phosphorothioate P-class] | higher degree of TLR9 stimulation than the unmodified P class ODN | greatest reduction in tumor volume | effective in reducing tumor volume | slightly higher activation of IL-6 |  |  | 
JU*C-G*A*C*G*T*C*G*A*T*C*G*G*C*G*C*G*C*G*C*C*G (DNA d[5IU]*dCdG*dA*dC*dG*dT*dC*dG*dA*dT*dC*dG*dG*dC*dG*dC*dG*dC*dG*dC*dC*dG) [SEQ ID NO:58, JU-modified P-class] |  |  |  | slightly higher activation of IL-6 | slightly higher IFN-alpha induction |  | 
JU*C-G*A*C*G*T*C*G*A*T*C*G*G*C*G*C*G*C*G*C*C*G*T (DNA d[5IU]*dCdG*dA*dC*dG*dT*dC*dG*dA*dT*dC*dG*dG*dC*dG*dC*dG*dC*dG*dC*dC*dG*dT) [SEQ ID NO:60, JU-modified P-class] |  | greatest reduction in tumor volume | effective in reducing tumor volume | slightly higher activation of IL-6 | slightly higher IFN-alpha induction |  | 
JU*C-G*T*C*G*A*C*G*A*T*C*G*G*C*G*G*C*C*G*C*C*G*T (DNA d[5IU]*dCdG*dT*dC*dG*dA*dC*dG*dA*dT*dC*dG*dG*dC*dG*dG*dC*dC*dG*dC*dC*dG*dT) [SEQ ID NO:66, JU-modified P-class with phosphodiester bond in the CG dinucleotide] | higher degree of TLR9 stimulation than the unmodified P class ODN; also recorded: reduced activity compared to the fully phosphorothioate SEQ ID NO:67 |  |  |  |  | reduced activity compared to SEQ ID NO:67 | 
T*G*T*C-G*T*T*T*T*T*T*T*T*T*T*T*T*T*T*T (DNA dT*dG*dT*dCdG*dT*dT*dT*dT*dT*dT*dT*dT*dT*dT*dT*dT*dT*dT*dT) [SEQ ID NO:1, reference compound] |  |  |  |  |  |  | virtually inactive
